From US11957766B2, “HNQO1-activatable fluorescent probe for imaging cancer cells in-vitro and in-vivo” (Texas Tech University System, priority 2019, dated 2024)

Experiments:
[1] = biological target: NQO1 (Homo sapiens, UniProt P15559); assay: Selectivity of NIR-ASM for NQO1 over other enzymes/substrates; format: biochemical; design: purchased Sigma-Aldrich D1515; settings: 30 min; GSH, ALDH1A1, GGT, GPx, APE1, CBS, CTSL, GST-pi, NADH, NTR
Text: Selectivity of NIR-ASM. The selectivity of NIR-ASM probe was studied by examining its reactivity towards various biomolecules and antioxidant enzymes such as the glutathione, aldehyde dehydrogenase 1, gamma-glutamyl transferase, glutathione peroxidase, apurinic/apyrimidinic endonuclease, cystathionine-β-synthase, cathepsin L, glutathione S-transferase, NADH alone and the combination of nitroreductase and NQO1.
Determination of NIR-ASM specificity towards NQO1. The specificity towards NQO1 was investigated by incubating NIR-ASM (10 μm) with various biologically relevant analytes such as glutathione (GSH, 1 mM), aldehyde dehydrogenase 1 (ALDH1A1, 2.5 μg/mL), gamma-glutamyl transferase (GGT, 10 U), glutathione peroxidase (GPx, 10 U), apurinic/apyrimidinic endonuclease (APE1, 10 U), cystathionine-β-synthase (CBS, 2 μg/mL), cathepsin L (CTSL, 2 μg/mL), glutathione S-transferase (GST-pi, 2 μg/mL), NADH (100 μM) alone and the combination of nitroreductase (NTR, 2 μg/mL) and NQO1 (2 μg/mL) for 30 min. Fluorescence spectra were analyzed to determine NIR-ASM specificity against NQO1.

[2] = tested on: human NQO1 transfected MDA-MB-231 cells; assay: NIR-ASM in NQO1 gene transfected MDA-MB-231 cells; format: cell-based; settings: microscopy and flow cytometry
Method: (§1) Chemical and genetic approaches confirm the specificity of NIR-ASM for NQO1 in live tumor cells. A fluorescence probe with high sensitivity, simple operation, and excellent specificity will be an asset for the detection of NQO1 in situ. To assess the substrate selectivity of NIR-ASM for NQO1, both A549 and H460 cells were pretreated with 100 nM of NQO1 inhibitor ES936 for 6 h, before incubating with 10 μM NIR-ASM. […] The effect of ES936 on endogenous NQO1 activity and subsequent reactivity with NIR-ASM was also determined by flow cytometry. […] The presence of NQO1 protein in the transfected MDA-MB-231 cells and its absence in the untransfected control was confirmed by immunoblotting (FIG. 13E). Subsequently, the NQO1-negative and positive MDA-MB-231 cell lines were incubated with NIR-ASM and analyzed by fluorescence microscopy and flow cytometry for activation of the probe.
NQO1 plasmid transfection. Cells were seeded at 60% confluence in six-well plates 16 h before transfection with the desired plasmids. Transfections were carried using a plasmid expressing wild-type NQO1 (pCDNA3 NQO1-Flag, addgene, 61729) and X-tremeGENE DNA transfection reagent (Roche) according to manufacturer instructions. One μg DNA was used in each transfection and cell extracts were prepared 24 h post-transfection to confirm NQO1 protein expression by Western blotting.

[3] = tested on: NQO1-negative MDA-MB-231 cells; assay: NIR-ASM in NQO1-negative control MDA-MB-231 cells; format: cell-based, human; settings: microscopy and flow cytometry
Method: as §1
Fluorescence imaging. Both cancer and normal cells were seeded into 6-well plates and cultured overnight in respective media at 37° C. […] Finally, the medium was replaced with PBS and the live cells were imaged using a multiphoton confocal fluorescence microscope (λex/em=488/644 nm). […]
Flow cytometry analysis. The endogenous NQO1 activity of cancer cells and normal cells was determined by flow cytometry after NIR-ASM exposure. […] About 1×10^4 cells were analyzed by flow cytometry (λex=488 nm).

[4] = tested on: brain tumor (DAOY, T98G, and U87MG) and normal (astrocytes) cells; assay: Cytotoxicity of NQ-DCP, resazurin reduction assay; format: cell-based, human; settings: 100 μM, 72 h incubation
Method: Visualization of Cancer Cells by Fluorescence Imaging of hNQO1. […] The cytotoxicity of NQ-DCP was initially evaluated in cultured brain tumor (DAOY, T98G, and U87MG) and normal (astrocytes) cells to assess its biocompatibility using the resazurin reduction assay. […] Cells were incubated with NQ-DCP (10 μM) for 60 min, washed with PBS and were imaged under a fluorescence microscope.

[5] = tested on: subcutaneous U87MG tumor; assay: Fluorescence imaging of hNQO1 in subcutaneous U87MG tumor-bearing mice with NQ-DCP; format: in vivo
Method: Fluorescence Imaging of hNQO1 in U87MG Tumor-Bearing Mice. With the prominent performance of NQ-DCP in cellular fluorescence imaging, the inventors further applied this probe to evaluate its capacity for the noninvasive fluorescence imaging of hNQO1 in vivo. NQ-DCP (10 mg/kg, 50 μL) was intravenously injected into sub-cutaneous U87MG tumor-bearing mice. The whole-body fluorescence was imaged with a Caliper IVIS Spectral imaging system. […] The host organs and tumor from the mice administered with NQ-DCP were harvested and their fluorescence was analyzed ex vivo using the IVIS to confirm the tumor-selective targeting ability of NQ-DCP. […] The application of NQ-DCP to image hNQO1 activity was also investigated in intracranial U87MG tumor-bearing mice. Tumor xenografts were established by implanting exponentially growing U87MG-Luc cells by stereotaxic injection into mice brain and the tumor growth was assessed by quantitative bioluminescence using IVIS (in vivo imaging system) (FIG. 7C). […] Therefore, the inventors performed intracranial injection of NQ-DCP (100 μM, 5 μL) to both healthy and tumor-bearing mice, the brain was isolated after 30 min and fluorescence images acquired.
Four-week-old male and female NCG and athymic nude mice were housed in a micro ventilated caging system in a sterile environment and fed ad-libitum with standard irradiated research rodent diet and water. […]

Sequence of NQO1 (P15559 whole entry): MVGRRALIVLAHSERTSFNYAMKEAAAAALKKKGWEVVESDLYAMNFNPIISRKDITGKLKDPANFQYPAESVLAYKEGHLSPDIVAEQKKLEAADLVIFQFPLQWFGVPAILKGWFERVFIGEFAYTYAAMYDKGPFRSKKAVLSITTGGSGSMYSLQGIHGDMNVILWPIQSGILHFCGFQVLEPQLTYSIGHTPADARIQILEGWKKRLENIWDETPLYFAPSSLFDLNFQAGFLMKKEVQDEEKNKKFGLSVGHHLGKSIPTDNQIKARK

SMILES	selectivity for NQO1 over the other enzymes/substrates tested [1]	fluorescence after NQO1 gene transfection [2]	fluorescence in control (NQO1-negative) cells [3]	cytotoxicity [4]	time of maximum fluorescence in the tumor ([5]; 10 mg/kg, 50 μL, intravenous) [min]	ex vivo fluorescence in tumor and organs ([5]; organs harvested after intravenous NQ-DCP, 30 min)
CC1=C(C)C(=O)C(C(C)(C)CC(=O)Nc2ccc(/C=C/C3=CC(=C(C#N)C#N)CC(C)(C)C3)cc2)=C(C)C1=O [NIR-ASM, (E)-N-(4-(2-(3-(dicyanomethylene)-5,5-dimethylcyclohex-1-en-1-yl)vinyl)phenyl)-3-methyl-3-(2,4,5-trimethyl-3,6-dioxocyclohexa-1,4-dien-1-yl)butanamide]	high selectivity	intense fluorescence	No fluorescence			
CC1=C(C)C(=O)C(C(C)(C)CC(=O)Oc2ccc(/C=C/C3=CC(=C(C#N)C#N)CC(C)(C)C3)cc2)=C(C)C1=O [NQ-DCP]				nontoxic	30	selectively observed in the tumor and not in any other major organs
